The values below are quoted from earlier work in patent US10869938B2, “Magnetic resonance imaging” (1C TARGETS AS, priority 2007, dated 2020).

Like-named read-outs stand apart in the source and are kept apart here.

The subject of this data set is healthy myocardial cells. Conditions: healthy individuals.

As to `Cc1ncc(COP(=O)(O)O)c(CN(CCN(CC(=O)[O-])Cc2c(COP(=O)(O)O)cnc(C)c2O)CC(=O)[O-])c1O.[Mn+2]` [MnDPDP, manganese (II) chelate of N,N′-bis-(pyridoxal-5-phosphate)-ethylenediamine-N,N′-diacetic acid], the “manganese tissue concentration versus time curve” value runs as follows: (5 minute infusion) “biphasic curve”; (30 minute infusion) “increased steadily”.
